Data published in patent US9249129B2, “Morpholino substituted urea derivatives as mTOR inhibitors” (CELLZOME LIMITED, priority 2010, dated 2016).
Read-outs that look alike come from different tables or passages of the source.

How the values were obtained:
mTOR = molecular target: T1, mTOR (Homo sapiens, UniProt P42345); test: mTOR kinobeads assay (dot blot detection); assay type: binding
T1 construct: endogenous in cells; host or cells: Jurkat cells (ATCC TIB-152, clone E6-1), lysate
Method: (§1) The compounds of the present invention as described were tested in the mTOR kinobeads assay as described below. Briefly, test compounds (at various concentrations) and the affinity matrix (1:1 mixture of beads with immobilized phenylthiazole ligand 1 and beads with immobilized phenylmorpholin-chromen ligand; WO 2009/098021) were added to cell lysate aliquots and allowed to bind to the proteins in the lysate sample. After the incubation time the beads with captured proteins were separated from the lysate. Bound proteins were then eluted and the presence of mTOR, PI3K delta (PI3 Kd) and DNA-dependent protein kinase (DNA-PK) was detected and quantified using a specific antibody in a dot blot procedure and the Odyssey infrared detection system. Dose response curves for individual kinases were generated and IC50 values calculated. Kinobeads assays for PI3 kinases (WO-A 2008/015013) and for kinase selectivity profiling (WO 2009/098021) have been previously described.
(§2) The affinity matrix (beads with immobilized phenylmorpholin-chromen ligand) was washed two times with 15 ml of 1×DP buffer containing 0.2% NP40 (IGEPAL® CA-630, Sigma, #13021) and then resupended in 5.5 ml of 1×DP buffer containing 0.2% NP40 (10% beads slurry).
(§3) 5×DP buffer: 250 mM Tris-HCl pH 7.4, 25% Glycerol, 7.5 mM MgCl2, 750 mM NaCl, 5 mM Na3VO4, filter the 5×-lysis buffer through 0.22 μm filter and store in aliquots at −80° C. The 5×DP buffer is diluted to 1×DP buffer containing 1 mM DTT and 25 mM NaF.
(§4) Stock solutions of test compounds were prepared in DMSO. In a 96 well plate 30 μl solution of diluted test compounds at 5 mM in DMSO were prepared. Starting with this solution a 1:3 dilution series (9 steps) was prepared. For control experiments (no test compound) a buffer containing 2% DMSO was used. Compound CZC00018052 served as a positive control (PI-103; Calbiochem catalogue number 528100).
(§5) Jurkat cells (ATCC catalogue number TIB-152 Jurkat, clone E6-1) were grown in 1 litre Spinner flasks (Integra Biosciences, #182101) in suspension in RPMI 1640 medium (Invitrogen, #21875-034) supplemented with 10% Fetal Bovine Serum (Invitrogen) at a density between 0.15×10^6 and 1.2×10^6 cells/ml. Cells were harvested by centrifugation, washed once with 1×PBS buffer (Invitrogen, #14190-094) and cell pellets were frozen in liquid nitrogen and subsequently stored at −80° C.
(§6) Jurkat cells were homogenized in a Potter S homogenizer in lysis buffer: 50 mM Tris-HCl, 0.8% NP40, 5% glycerol, 150 mM NaCl, 1.5 mM MgCl2, 25 mM NaF, 1 mM sodium vanadate, 1 mM DTT, pH 7.5. One complete EDTA-free tablet (protease inhibitor cocktail, Roche Diagnostics, 1873580) per 25 ml buffer was added. The material was dounced 10 times using a mechanized POTTER S, transferred to 50 ml falcon tubes, incubated for 30 minutes on ice and spun down for 10 min at 20,000 g at 4° C. (10,000 rpm in Sorvall SLA600, precooled). The supernatant was transferred to an ultracentrifuge (UZ)-polycarbonate tube (Beckmann, 355654) and spun for 1 hour at 100.000 g at 4° C. (33.500 rpm in Ti50.2, precooled). The supernatant was transferred again to a fresh 50 ml falcon tube, the protein concentration was determined by a Bradford assay (BioRad) and samples containing 50 mg of protein per aliquot were prepared. The samples were immediately used for experiments or frozen in liquid nitrogen and stored frozen at −80° C.
(§7) Jurkat cell lysate (approximately 50 mg protein per plate) was thawed in a water bath at room temperature and then kept on ice. To the thawed cell lysate 1×DP 0.8% NP40 buffer containing protease inhibitors (1 tablet for 25 ml buffer; EDTA-free protease inhibitor cocktail; Roche Diagnostics 1873580) was added in order to reach a final protein concentration of 5 mg/ml total protein. The diluted cell lysate was stored on ice. […]

PI3K delta (PI3Kd) = molecular target: T2, PI3K delta (PI3Kd) (Homo sapiens, UniProt O00329); test: kinobeads assay, PI3K delta (dot blot detection); assay type: binding
T2 construct: endogenous in cells; host or cells: Jurkat cells (ATCC TIB-152, clone E6-1), lysate
Method: as §1, §2, §3, §4, §5, §6, §7

[1] = molecular target: T3, DNA-dependent protein kinase (DNA-PK) (Homo sapiens, UniProt P78527); test: kinobeads assay, DNA-PK (dot blot detection); assay type: binding
T3 construct: endogenous in cells; host or cells: Jurkat cells (ATCC TIB-152, clone E6-1), lysate
T3 sequence (P78527 whole entry): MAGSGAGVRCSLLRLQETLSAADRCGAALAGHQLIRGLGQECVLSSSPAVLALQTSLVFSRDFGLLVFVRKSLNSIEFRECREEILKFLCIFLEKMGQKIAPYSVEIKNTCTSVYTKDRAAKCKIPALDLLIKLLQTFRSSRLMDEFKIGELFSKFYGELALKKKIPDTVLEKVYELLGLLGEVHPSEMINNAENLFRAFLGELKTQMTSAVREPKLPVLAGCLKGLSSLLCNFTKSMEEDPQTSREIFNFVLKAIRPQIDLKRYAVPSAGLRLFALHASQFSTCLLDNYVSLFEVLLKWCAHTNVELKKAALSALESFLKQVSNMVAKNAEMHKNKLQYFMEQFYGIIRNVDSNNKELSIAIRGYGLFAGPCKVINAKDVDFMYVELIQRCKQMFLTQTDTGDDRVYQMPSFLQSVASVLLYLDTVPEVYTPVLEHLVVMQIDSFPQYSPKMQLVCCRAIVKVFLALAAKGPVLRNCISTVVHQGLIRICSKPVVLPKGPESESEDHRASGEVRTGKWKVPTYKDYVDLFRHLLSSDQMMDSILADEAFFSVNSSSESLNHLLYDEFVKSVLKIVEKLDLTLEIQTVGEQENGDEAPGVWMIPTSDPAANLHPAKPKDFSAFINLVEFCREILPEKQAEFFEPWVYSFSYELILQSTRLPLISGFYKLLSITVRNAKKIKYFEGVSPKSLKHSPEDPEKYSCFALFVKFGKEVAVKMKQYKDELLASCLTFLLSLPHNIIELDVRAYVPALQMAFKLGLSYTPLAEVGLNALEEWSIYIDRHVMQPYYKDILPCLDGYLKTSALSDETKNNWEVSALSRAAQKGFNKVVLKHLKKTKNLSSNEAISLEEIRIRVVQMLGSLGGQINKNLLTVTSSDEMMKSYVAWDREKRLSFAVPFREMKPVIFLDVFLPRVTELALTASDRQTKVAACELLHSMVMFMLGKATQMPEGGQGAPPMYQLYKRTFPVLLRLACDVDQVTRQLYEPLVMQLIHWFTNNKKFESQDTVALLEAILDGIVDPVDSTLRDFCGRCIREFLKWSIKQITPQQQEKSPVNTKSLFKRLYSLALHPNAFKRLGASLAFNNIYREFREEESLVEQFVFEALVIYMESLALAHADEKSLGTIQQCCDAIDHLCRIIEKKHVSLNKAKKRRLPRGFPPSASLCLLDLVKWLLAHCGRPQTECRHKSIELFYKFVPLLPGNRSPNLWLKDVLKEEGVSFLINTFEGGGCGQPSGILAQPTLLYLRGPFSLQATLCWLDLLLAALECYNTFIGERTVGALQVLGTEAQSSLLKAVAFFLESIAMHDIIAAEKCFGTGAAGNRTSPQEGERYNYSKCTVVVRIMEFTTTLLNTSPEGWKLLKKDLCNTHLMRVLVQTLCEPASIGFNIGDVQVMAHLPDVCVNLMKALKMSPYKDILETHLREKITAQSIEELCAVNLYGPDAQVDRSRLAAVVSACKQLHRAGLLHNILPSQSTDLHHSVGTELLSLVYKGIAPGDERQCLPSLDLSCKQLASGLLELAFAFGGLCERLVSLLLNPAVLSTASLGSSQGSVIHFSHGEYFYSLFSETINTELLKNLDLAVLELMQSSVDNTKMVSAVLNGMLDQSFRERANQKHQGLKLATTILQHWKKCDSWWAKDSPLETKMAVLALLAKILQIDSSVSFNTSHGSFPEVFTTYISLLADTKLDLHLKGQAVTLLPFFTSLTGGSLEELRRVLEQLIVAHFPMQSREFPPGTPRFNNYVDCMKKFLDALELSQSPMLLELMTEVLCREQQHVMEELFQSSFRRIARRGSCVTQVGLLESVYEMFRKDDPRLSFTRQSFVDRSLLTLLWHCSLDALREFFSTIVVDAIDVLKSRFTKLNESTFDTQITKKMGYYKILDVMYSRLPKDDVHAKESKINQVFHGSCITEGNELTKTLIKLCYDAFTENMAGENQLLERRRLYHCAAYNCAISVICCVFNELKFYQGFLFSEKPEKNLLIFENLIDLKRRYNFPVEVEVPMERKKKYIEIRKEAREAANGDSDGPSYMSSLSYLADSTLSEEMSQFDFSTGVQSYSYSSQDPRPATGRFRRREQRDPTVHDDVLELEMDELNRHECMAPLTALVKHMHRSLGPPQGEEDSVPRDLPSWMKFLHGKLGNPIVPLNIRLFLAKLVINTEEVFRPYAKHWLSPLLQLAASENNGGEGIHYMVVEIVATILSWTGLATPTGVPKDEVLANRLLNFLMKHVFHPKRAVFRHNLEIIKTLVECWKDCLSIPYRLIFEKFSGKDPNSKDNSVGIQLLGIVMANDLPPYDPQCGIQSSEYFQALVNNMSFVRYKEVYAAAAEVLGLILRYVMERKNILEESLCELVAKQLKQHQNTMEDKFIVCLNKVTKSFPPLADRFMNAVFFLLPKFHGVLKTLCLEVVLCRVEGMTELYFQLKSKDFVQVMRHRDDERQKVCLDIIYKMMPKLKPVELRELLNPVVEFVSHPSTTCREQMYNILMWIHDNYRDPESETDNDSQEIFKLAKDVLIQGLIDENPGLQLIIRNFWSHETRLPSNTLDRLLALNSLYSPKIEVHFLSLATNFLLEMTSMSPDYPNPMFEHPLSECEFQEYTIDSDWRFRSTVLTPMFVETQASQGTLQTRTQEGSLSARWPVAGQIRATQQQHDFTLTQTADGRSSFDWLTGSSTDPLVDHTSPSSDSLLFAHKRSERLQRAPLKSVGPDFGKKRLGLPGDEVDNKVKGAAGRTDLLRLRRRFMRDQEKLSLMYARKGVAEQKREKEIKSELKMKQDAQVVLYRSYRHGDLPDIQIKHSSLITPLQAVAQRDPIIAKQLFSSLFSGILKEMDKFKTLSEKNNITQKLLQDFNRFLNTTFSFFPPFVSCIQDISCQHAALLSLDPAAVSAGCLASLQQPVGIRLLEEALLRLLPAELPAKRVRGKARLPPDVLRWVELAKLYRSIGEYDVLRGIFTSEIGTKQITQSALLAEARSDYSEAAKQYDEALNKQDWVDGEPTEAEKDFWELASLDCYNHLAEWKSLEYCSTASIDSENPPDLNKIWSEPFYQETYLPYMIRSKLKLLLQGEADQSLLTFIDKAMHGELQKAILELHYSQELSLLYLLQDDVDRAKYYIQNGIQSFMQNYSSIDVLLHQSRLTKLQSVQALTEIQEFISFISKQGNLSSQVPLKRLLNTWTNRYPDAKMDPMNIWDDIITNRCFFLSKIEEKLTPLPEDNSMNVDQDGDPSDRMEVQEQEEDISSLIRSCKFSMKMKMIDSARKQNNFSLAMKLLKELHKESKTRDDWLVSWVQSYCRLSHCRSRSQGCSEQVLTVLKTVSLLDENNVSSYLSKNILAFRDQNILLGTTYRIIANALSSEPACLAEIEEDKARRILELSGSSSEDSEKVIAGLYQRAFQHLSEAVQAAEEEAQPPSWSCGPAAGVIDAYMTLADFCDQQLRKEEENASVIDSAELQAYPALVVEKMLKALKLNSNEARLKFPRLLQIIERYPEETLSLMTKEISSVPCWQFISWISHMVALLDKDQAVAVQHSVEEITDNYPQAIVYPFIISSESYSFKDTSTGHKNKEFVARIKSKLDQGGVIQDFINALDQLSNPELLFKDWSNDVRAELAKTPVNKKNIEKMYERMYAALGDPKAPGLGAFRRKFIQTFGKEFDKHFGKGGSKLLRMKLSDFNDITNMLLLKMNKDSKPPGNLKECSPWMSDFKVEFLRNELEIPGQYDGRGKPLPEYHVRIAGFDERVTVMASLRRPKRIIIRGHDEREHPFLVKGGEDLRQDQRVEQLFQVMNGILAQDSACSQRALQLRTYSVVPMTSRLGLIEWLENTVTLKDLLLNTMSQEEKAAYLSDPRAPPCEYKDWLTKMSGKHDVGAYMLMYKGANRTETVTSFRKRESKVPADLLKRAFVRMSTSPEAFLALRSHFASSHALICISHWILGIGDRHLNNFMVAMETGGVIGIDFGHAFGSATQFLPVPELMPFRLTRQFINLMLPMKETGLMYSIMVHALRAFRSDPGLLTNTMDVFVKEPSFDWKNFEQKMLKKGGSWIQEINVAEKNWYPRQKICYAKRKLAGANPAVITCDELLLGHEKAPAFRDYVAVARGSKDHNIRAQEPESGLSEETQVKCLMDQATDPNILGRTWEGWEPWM
Method: as §1, §2, §3, §4, §5, §6, §7

PI3Kα = molecular target: T4, PI3Kα (Homo sapiens, UniProt P42336); test: kinobeads assay, PI3K alpha (dot blot detection); assay type: binding; details: Table 4, read-out: Inhibition values (IC50) PI3Ka
T4 construct: endogenous in cells; host or cells: Jurkat cells (ATCC TIB-152) lysate, the only lysate described

PI3Kβ = molecular target: T5, PI3Kβ (Homo sapiens, UniProt P42338); test: kinobeads assay, PI3K beta (dot blot detection); assay type: binding; details: Table 4, read-out: Inhibition values (IC50) PI3Kb
T5 construct: endogenous in cells; host or cells: Jurkat cells (ATCC TIB-152) lysate, the only lysate described

PI3Kγ = molecular target: T6, PI3Kγ (Homo sapiens, UniProt P48736); test: kinobeads assay, PI3K gamma (dot blot detection); assay type: binding; details: Table 4, read-out: Inhibition values (IC50) PI3Kg
T6 construct: endogenous in cells; host or cells: Jurkat cells (ATCC TIB-152) lysate, the only lysate described

[2] = test system: S6RP serine-240/244 phosphorylation in HEK293T/17 cells; test: In vitro phospho-S6 cellular assay (pS6RP S240/244); assay type: cell-based; details: Homo sapiens, Table 6, 2 hours, S6RP Ser240/244, read-out: pS6 (phospho-S6 cell assay data, activity level)
Excerpt: In Vitro Phospho-S6 and Phospho-Akt Cellular Assay
Activation of mTOR signaling results in phosphorylation of several downstream targets. In cells, mTOR exists in two different protein complexes. The mTOR Complex-1 (mTORC1) phosphorylates and activates S6 Kinase 1 (S6K1) and S6 Kinase 2 (S6K2) (also known as p70S6K) which then phosphorylate S6 Ribosomal Protein (S6RP) (also known as RPS6). S6RP is phosphorylated on serine 235, serine 236, serine 240 and serine 244 by both pS6K1 and pS6K2. The mTOR Complex-2 (mTORC2) phosphorylates AKT on serine 473 which activates the AKT signaling pathway.
The assay measures a test compound's inhibition of S6RP serine-240/244 phosphorylation and inhibition of Akt serine-473 phosphorylation in human embryonic kidney derived HEK293T/17 cells (ATCC CRL-11268).
The HEK293T/17 cell line is maintained in DMEM media (Invitrogen catalogue number 41965-039) supplemented with 10% FCS at 37° C. in a 5% CO2 humidified incubator.
Cells are seeded in 96-well plates at 40,000 cells/well (pS6RP S240/244 assay) or 80,000 cells/well (pAkt 5473 assay) in 90 μl growth media (DMEM, 2% FCS). Plates are incubated for 1 hour in a humidified incubator to allow the cells to adhere. Cells are treated with 8 concentrations of test compounds or DMSO alone for controls (final DMSO concentration 0.1%) and incubated at 37° C. for 2 hours. Then 20 μl of 5× concentrated lysis buffer (750 mM NaCl, 100 mM Tris pH7.4, 5 mM EDTA, 5 mM EGTA, 5% Triton X-100) is added, plates are sealed and incubated for 15 minutes at 4° C. with gentle shaking. After cell lysis, 25 μl cell lysate is transferred to a MesoScale plate coated with an antibody to pS6RP Ser240/244 (MesoScale Discovery K150DGD-3) or an antibody to pAkt Ser 473 (MesoScale Discovery K151DGD-3). Plates have been blocked before by incubation with 150 μl MesoScale Discovery Blocking Solution-A for 1 hour at room temperature followed by washing with 150 μl 1× Tris wash buffer per well. After the transfer of the cell lysate to the MSD plate, the pS6RP (or pAkt) protein is captured on the coated antibody by incubation at room temperature for 1 hour with gentle shaking. After the capture step the plate is washed three times with 150 μl of 1× Tris wash buffer per well. Then 25 μl detection antibody conjugated with a Sulfo-Tag is added and incubated for 1 hour at room temperature with gentle shaking. Subsequently the antibody solution is removed and the plate is washed 3 times with 150 μl 1× Tris wash buffer per well and 150 μl Read buffer is added. The plates are analysed on a MSD 2400 Plate Reader (MesoScale Discovery). Data analysis is performed using nonlinear regression for a sigmoidal dose-response with a variable slope.

[3] = Table 2, Jurkat cell lysate, read-out: Inhibition values (IC50) mTor
[4] = Table 4, read-out: Inhibition values (IC50) mTOR
[5] = Table 2, Jurkat cell lysate, read-out: Inhibition values (IC50) PI3Kd
[6] = Table 4, read-out: Inhibition values (IC50) PI3Kd
[7] = Table 2, Jurkat cell lysate, read-out: Inhibition values (IC50) DNAPK
[8] = Table 4, read-out: Inhibition values (IC50) DNAPK

Row | SMILES | IC50 (mTOR; [3]) | IC50 (mTOR; [4]) | IC50 (PI3K delta (PI3Kd); [5]) | IC50 (PI3K delta (PI3Kd); [6]) | IC50 [1, 7] | IC50 [1, 8] | IC50 (PI3Kα) | IC50 (PI3Kβ) | IC50 (PI3Kγ) | IC50 [2]
1 | C[C@H](CO)NC(=O)Nc1ccc(-c2cc(-c3cc(F)ccc3S(C)(=O)=O)nc(N3CCOC[C@@H]3C)n2)cc1 [Example 73, 1-(4-(6-(5-fluoro-2-(methylsulfonyl)phenyl)-2-((S)-3-methylmorpholino)pyrimidin-4-yl)phenyl)-3-((R)-1-hydroxypropan-2-yl)urea] |  | 100 to 1000 nM |  | ≥ 10 µM |  | ≥ 10 µM | ≥ 10 µM | ≥ 10 µM | ≥ 10 µM | < 100 nM
2 | O=C(Nc1ccc(-c2nccc(N3CC4CCC(C3)O4)n2)cc1)NC1CC1 [Example 48, 1-(4-(4-(8-oxa-3-azabicyclo[3.2.1]octan-3-yl)pyrimidin-2-yl)phenyl)-3-cyclopropylurea] | 100 to 1000 nM | 100 to 1000 nM | ≥ 10 µM | ≥ 10 µM | 1 to 10 µM | 1 to 10 µM | ≥ 10 µM | ≥ 10 µM | ≥ 10 µM | 100 to 1000 nM
3 | O=C(Nc1ccc(-c2ccnc(N3CC4CCC(C3)O4)n2)cc1)NC1CC1 [Example 57, 1-(4-(2-(8-oxa-3-azabicyclo[3.2.1]octan-3-yl)pyrimidin-4-yl)phenyl)-3-cyclopropylurea] | 1000 to 10000 nM | 1000 to 10000 nM | ≥ 10 µM | ≥ 10 µM | ≥ 10 µM | ≥ 10 µM | ≥ 10 µM | ≥ 10 µM | ≥ 10 µM | 100 to 1000 nM
4 | C[C@H]1COCCN1c1nc(-c2ccc(NC(=O)NC(C)(C)CO)cc2)cc(-c2cc(F)ccc2S(C)(=O)=O)n1 [Example 69, (S)-1-(4-(6-(5-fluoro-2-(methylsulfonyl)phenyl)-2-(3-methylmorpholino)pyrimidin-4-yl)phenyl)-3-(1-hydroxy-2-methylpropan-2-yl)urea] | 1000 to 10000 nM | 1000 to 10000 nM | ≥ 10 µM | ≥ 10 µM | ≥ 10 µM | ≥ 10 µM | ≥ 10 µM | ≥ 10 µM | ≥ 10 µM | < 100 nM
5 | C[C@H]1COCCN1c1nc(-c2ccc(NC(=O)NC3CC3)cc2)cc(-c2cccnc2)n1 [Example 7, (S)-1-cyclopropyl-3-(4-(2-(3-methylmorpholino)-6-(pyridin-3-yl)pyrimidin-4-yl)phenyl)] | 1000 to 10000 nM | 1000 to 10000 nM | ≥ 10 µM | ≥ 10 µM | ≥ 10 µM | ≥ 10 µM | ≥ 10 µM | ≥ 10 µM | ≥ 10 µM | 100 to 1000 nM

Further lines, with some results ahead:

Row | IC50 (mTOR; [3]) | IC50 (mTOR; [4]) | IC50 (PI3K delta (PI3Kd); [5]) | IC50 (PI3K delta (PI3Kd); [6]) | IC50 [1, 7] | IC50 [1, 8] | IC50 (PI3Kα) | IC50 (PI3Kβ) | IC50 (PI3Kγ) | SMILES | IC50 [2]
6 | 100 to 1000 nM | 100 to 1000 nM | ≥ 10 µM | ≥ 10 µM | ≥ 10 µM | ≥ 10 µM | ≥ 10 µM | ≥ 10 µM | ≥ 10 µM | CCNC(=O)Nc1ccc(-c2cc(-c3ccccc3S(=O)(=O)N(C)C)nc(N3CCOC[C@@H]3C)n2)cc1 [Example 14, (S)-2-(6-(4-(3-ethylureido)phenyl)-2-(3-methylmorpholino)pyrimidin-4-yl)-N,N-dimethylbenzenesulfonamide] | 100 to 1000 nM
7 | 1000 to 10000 nM | 1000 to 10000 nM | ≥ 10 µM | ≥ 10 µM | ≥ 10 µM | ≥ 10 µM | ≥ 10 µM | ≥ 10 µM | ≥ 10 µM | O=C(NCCO)Nc1ccc(-c2ccnc(N3CC4CCC(C3)O4)n2)cc1 [Example 59, 1-(4-(2-(8-oxa-3-azabicyclo[3.2.1]octan-3-yl)pyrimidin-4-yl)phenyl)-3-(2-hydroxyethyl)urea] | 100 to 1000 nM
8 |  | 1000 to 10000 nM |  | ≥ 10 µM |  | ≥ 10 µM | ≥ 10 µM | ≥ 10 µM | ≥ 10 µM | C[C@@H](O)CNC(=O)Nc1ccc(-c2cc(-c3cc(F)ccc3S(C)(=O)=O)nc(N3CCOC[C@@H]3C)n2)cc1 [Example 82] | < 100 nM
9 |  | 100 to 1000 nM |  | ≥ 10 µM |  | ≥ 10 µM | ≥ 10 µM | ≥ 10 µM | ≥ 10 µM | C[C@H](O)CNC(=O)Nc1ccc(-c2cc(-c3cc(F)ccc3S(C)(=O)=O)nc(N3CCOC[C@@H]3C)n2)cc1 [Example 83, 1-(4-(6-(5-fluoro-2-(methylsulfonyl)phenyl)-2-((S)-3-methylmorpholino)pyrimidin-4-yl)phenyl)-3-((S)-2-hydroxypropyl)urea] | < 100 nM
